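1) Cells in 96-well plates. 2) Compound, 48 h, 5 concentrations. 3) Linear interpolation between surrounding doses. 4) Unreached endpoint = highest concentration. TGI: total growth inhibition.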
Key:
Assay in all cases: NCI anticancer screen, dose series, 48 h
UACC-62 melanoma = test system: UACC-62 melanoma
NCI-H522 lung = test system: NCI-H522 lung
HL-60(TB) leukemia = test system: HL-60(TB) leukemia
HCT-116 colon = test system: HCT-116 colon
LOX IMVI melanoma = test system: LOX IMVI melanoma
786-0 renal = test system: 786-0 renal
SNB-75 CNS = test system: SNB-75 CNS
OVCAR-5 ovarian = test system: OVCAR-5 ovarian
M14 melanoma = test system: M14 melanoma
NCI/ADR-RES ovarian = test system: NCI/ADR-RES ovarian

| SMILES | TGI (UACC-62 melanoma) [µM] | TGI (NCI-H522 lung) [µM] | TGI (HL-60(TB) leukemia) [µM] | TGI (HCT-116 colon) [µM] | TGI (LOX IMVI melanoma) [µM] | TGI (786-0 renal) [µM] | TGI (SNB-75 CNS) [µM] | TGI (OVCAR-5 ovarian) [µM] | TGI (M14 melanoma) [µM] | TGI (NCI/ADR-RES ovarian) [µM] |
| --- | --- | --- | --- | --- | --- | --- | --- | --- | --- | --- |
| O=C1COc2cccnc2N1CCCCO | > 100 | > 100 | > 100 | > 100 | > 100 | > 100 | > 100 | > 100 |  |  |
| C=CCn1c(N)c(C#N)c(C#N)c1-c1ccccc1 | > 100 | > 100 | > 100 |  | > 100 | > 100 | > 100 | > 100 | > 100 | > 100 |
| Cc1[nH]c(=O)nc2nc3ccc(Cl)cc3c(NCCNCCO)c12 | 24.3 | 12.9 | > 100 | 18.5 | 21 | 21.2 |  | 26.1 | 25.8 | 42.3 |
| CO/N=C(\C(=O)OC(=NC1CCCCC1)NC1CCCCC1)c1csc(NC(c2ccccc2)(c2ccccc2)c2ccccc2)n1 |  | > 10 | > 10 | > 10 | > 10 | > 10 | > 10 | > 10 | > 10 | > 10 |
| NC(N)=NS(=O)(=O)c1ccc(NNc2c3ccccc3nc3c(C(=O)Nc4ccc(S(=O)(=O)Nc5ncccn5)cc4)cccc23)cc1 | 48.2 | 45.9 | > 100 | 78.1 |  | > 100 | > 100 | > 100 | 89.7 | > 100 |
| CC(=O)c1ccccc1NP(=O)(c1ccccc1)c1ccccc1 | > 100 | > 100 | 87.7 | > 100 | > 100 | > 100 |  | > 100 | > 100 | > 100 |
| Cc1ccc(S(=O)(=O)c2[nH]cc(/C(=C\C3CCCCC3)[N+](=O)[O-])c2C2CCCCC2)cc1 | 0.625 | 0.541 |  | 0.468 | 0.439 | 0.442 | 5.81 | 3.71 | 1.15 | 19.9 |
| O=c1[nH]cnc2c1cnn2Cc1cn(CCCCO)nn1 | > 100 | > 100 |  | > 100 | > 100 | > 100 |  | > 100 | > 100 | > 100 |
| CC(=O)Nc1ccc(N=Nc2c(O)c(S(=O)(=O)O)cc3cc(S(=O)(=O)O)ccc23)cc1 | > 100 | > 100 |  | > 100 |  | > 100 | > 100 | > 100 | > 100 | > 100 |
| Cc1n(Cc2ccccc2)c2c([n+]1C)C(=O)c1ccccc1C2=O | 0.451 | 0.135 |  | 0.512 | 0.401 | 0.877 | 0.219 | 0.503 | 0.282 | > 100 |
| Nc1ccc2c(c1)C(=O)N1CCC[C@H]1C(=O)N2 | > 100 | > 100 |  | > 100 | > 100 | > 100 | > 100 | > 100 | > 100 | > 100 |
| CCCNC(=O)NNC(=O)c1c[nH]c2nc(C)ccc2c1=O | > 100 | > 100 | > 100 | > 100 | > 100 | > 100 |  | > 100 | > 100 | > 100 |
| Cc1ccc(/C=N/Nc2cc(C)c3cccc(C)c3n2)s1 | 43.6 | 16.9 |  | 12.4 | 4.3 | 11 | > 100 | 28.2 | 18.2 | 22.5 |
| COc1cc2c(cc1OC)C(CC1=C(c3ccccc3)CN3CCc4cc(OC)c(OC)cc4C3C1)NCC2 (stereo not given) | 36.3 |  | 28.6 |  | 33.6 | 29.5 | 28 | 35.4 | 46.3 |  |
| N#C[C@H](c1ccccn1)c1nc2ccccc2nc1Cl | > 100 | > 100 | > 100 | > 100 |  | > 100 | > 100 | > 100 | > 100 | > 100 |
| COc1cccc(CCNC(=O)Cc2ccccc2CCO)c1 | > 100 | > 100 | > 100 | > 100 |  | > 100 | > 100 | > 100 | > 100 | > 100 |
| CC(=O)Nc1sc(Br)cc1S(=O)(=O)c1ccc(Cl)cc1 | > 100 | 47.6 | 63.4 | > 100 |  | 92.3 | 88.6 | > 100 | 38 | 52.3 |
| CC(C)(C)OC(=O)NC1CCCCC1NC(=O)C(=O)NC1CCCCC1NC(=O)OC(C)(C)C (stereo not given) | 92.9 | > 100 | > 100 | > 100 | > 100 | > 100 |  | > 100 | > 100 | > 100 |
| CC1=NN(c2nc(N)nc(/C(C#N)=C\c3ccc([N+](=O)[O-])s3)n2)C(C)(C)C1 | 2.25 | 0.354 |  | 1.23 | 0.3 | 0.289 | 1.93 | 21.5 | 0.8 | 12.8 |
| CCCC(=O)NC(NC1CCCCC1)(C(=O)OCC)C(F)(F)F (stereo not given) |  | > 100 | > 100 | > 100 | > 100 | > 100 | > 100 | > 100 | > 100 | > 100 |
| COc1cc(C2c3cc4c(cc3OC(N3CCCCC3)C2C)OCO4)cc(OC)c1O (stereo not given) |  | 22.2 | 15.4 | 25.7 | > 59.8 | 27.7 | 13.7 | 41.3 | > 69.4 | 18.5 |
| O=C1/C(=C/c2ccc(Br)s2)NC(=S)N1c1ccccc1 | > 100 | > 100 | > 100 | > 100 | > 100 | > 100 |  | > 100 |  |  |
| COC(=O)/C=C(\C(=O)OC)C1C(=O)Oc2c(C)c(=O)c3ccccc3n21 (stereo not given) | > 100 | > 100 | > 100 | > 100 | > 100 | > 100 | > 100 |  | > 100 | > 100 |

From PubChem BioAssay (NCI)
